From paper PMC5933747 (PLoS ONE, 2018)
Like-named read-outs stand apart in the source and are kept apart here.

Columns and labels:
Type in all cases: cell-based
[1] = target: human NaV1.4 (Homo sapiens, UniProt P35499); assay: IonWorks Quattro (IWQ) electrophysiology, human NaV1.4
[2] = target: human NaV1.7 (Homo sapiens, UniProt Q15858); assay: IonWorks Quattro (IWQ) electrophysiology, human NaV1.7
[3] = target: human NaV1.5 (Homo sapiens, UniProt Q14524); assay: IonWorks Quattro (IWQ) electrophysiology, human NaV1.5
[4] = read-out: Glu mutant IWQ IC50 NaV1.4
[5] = read-out: Glu mutant IWQ IC50 NaV1.7
[6] = read-out: Glu mutant IWQ IC50 NaV1.5
[7] = read-out: Ala mutant IWQ IC50 NaV1.4
[8] = read-out: Ala mutant IWQ IC50 NaV1.7
[9] = read-out: Ala mutant IWQ IC50 NaV1.5

Sequence of human NaV1.5 (Q14524 whole entry): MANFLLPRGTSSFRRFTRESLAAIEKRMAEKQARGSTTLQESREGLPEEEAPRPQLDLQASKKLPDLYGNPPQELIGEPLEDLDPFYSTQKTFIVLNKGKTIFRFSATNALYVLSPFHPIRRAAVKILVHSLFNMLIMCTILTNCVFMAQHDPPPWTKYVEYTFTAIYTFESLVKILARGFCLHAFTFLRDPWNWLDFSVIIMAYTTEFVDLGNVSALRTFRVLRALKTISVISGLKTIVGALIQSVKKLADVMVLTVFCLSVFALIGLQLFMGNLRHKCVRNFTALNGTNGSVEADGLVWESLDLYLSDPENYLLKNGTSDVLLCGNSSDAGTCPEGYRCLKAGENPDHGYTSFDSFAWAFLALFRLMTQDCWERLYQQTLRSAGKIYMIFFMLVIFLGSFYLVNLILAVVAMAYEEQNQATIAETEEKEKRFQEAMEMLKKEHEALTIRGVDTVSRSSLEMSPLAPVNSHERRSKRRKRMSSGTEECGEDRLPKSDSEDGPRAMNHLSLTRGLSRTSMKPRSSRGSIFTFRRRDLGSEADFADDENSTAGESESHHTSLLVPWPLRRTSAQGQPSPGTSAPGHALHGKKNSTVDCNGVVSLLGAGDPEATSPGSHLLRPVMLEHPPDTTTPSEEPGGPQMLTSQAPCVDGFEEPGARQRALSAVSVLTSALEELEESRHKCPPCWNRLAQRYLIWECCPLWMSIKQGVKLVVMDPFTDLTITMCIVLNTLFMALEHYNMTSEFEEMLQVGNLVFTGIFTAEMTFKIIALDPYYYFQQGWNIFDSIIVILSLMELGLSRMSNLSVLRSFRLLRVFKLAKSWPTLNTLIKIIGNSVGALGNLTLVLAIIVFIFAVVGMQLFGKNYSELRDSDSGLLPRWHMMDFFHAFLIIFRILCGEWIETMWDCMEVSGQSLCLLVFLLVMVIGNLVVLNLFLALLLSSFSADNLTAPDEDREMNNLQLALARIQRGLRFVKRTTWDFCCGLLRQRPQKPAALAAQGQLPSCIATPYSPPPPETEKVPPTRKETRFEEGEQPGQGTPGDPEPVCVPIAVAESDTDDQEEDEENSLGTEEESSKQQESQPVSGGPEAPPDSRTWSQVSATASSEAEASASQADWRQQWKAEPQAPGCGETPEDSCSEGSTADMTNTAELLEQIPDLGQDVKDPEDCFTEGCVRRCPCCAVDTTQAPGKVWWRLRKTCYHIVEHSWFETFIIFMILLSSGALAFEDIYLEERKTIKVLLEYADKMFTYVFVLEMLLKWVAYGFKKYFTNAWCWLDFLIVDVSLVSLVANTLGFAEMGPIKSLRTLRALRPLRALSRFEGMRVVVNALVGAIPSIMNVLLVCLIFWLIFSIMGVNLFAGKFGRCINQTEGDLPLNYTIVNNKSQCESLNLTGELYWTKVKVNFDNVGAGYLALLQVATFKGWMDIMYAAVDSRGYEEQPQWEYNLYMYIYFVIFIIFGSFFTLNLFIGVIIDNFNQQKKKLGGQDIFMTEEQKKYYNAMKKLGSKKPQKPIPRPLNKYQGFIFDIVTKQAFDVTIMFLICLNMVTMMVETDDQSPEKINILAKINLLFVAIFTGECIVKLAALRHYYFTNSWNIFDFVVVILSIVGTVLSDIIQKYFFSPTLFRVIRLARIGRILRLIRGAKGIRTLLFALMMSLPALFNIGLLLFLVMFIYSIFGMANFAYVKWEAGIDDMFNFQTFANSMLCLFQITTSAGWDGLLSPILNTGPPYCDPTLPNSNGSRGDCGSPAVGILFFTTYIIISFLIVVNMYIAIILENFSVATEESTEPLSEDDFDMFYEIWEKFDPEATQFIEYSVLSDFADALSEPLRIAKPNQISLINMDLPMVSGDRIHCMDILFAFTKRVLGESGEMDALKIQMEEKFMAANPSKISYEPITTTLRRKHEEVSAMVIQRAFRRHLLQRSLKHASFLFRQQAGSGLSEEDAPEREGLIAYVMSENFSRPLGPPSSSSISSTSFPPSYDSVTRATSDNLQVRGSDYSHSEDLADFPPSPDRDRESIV
Sequence of human NaV1.7 (Q15858 whole entry): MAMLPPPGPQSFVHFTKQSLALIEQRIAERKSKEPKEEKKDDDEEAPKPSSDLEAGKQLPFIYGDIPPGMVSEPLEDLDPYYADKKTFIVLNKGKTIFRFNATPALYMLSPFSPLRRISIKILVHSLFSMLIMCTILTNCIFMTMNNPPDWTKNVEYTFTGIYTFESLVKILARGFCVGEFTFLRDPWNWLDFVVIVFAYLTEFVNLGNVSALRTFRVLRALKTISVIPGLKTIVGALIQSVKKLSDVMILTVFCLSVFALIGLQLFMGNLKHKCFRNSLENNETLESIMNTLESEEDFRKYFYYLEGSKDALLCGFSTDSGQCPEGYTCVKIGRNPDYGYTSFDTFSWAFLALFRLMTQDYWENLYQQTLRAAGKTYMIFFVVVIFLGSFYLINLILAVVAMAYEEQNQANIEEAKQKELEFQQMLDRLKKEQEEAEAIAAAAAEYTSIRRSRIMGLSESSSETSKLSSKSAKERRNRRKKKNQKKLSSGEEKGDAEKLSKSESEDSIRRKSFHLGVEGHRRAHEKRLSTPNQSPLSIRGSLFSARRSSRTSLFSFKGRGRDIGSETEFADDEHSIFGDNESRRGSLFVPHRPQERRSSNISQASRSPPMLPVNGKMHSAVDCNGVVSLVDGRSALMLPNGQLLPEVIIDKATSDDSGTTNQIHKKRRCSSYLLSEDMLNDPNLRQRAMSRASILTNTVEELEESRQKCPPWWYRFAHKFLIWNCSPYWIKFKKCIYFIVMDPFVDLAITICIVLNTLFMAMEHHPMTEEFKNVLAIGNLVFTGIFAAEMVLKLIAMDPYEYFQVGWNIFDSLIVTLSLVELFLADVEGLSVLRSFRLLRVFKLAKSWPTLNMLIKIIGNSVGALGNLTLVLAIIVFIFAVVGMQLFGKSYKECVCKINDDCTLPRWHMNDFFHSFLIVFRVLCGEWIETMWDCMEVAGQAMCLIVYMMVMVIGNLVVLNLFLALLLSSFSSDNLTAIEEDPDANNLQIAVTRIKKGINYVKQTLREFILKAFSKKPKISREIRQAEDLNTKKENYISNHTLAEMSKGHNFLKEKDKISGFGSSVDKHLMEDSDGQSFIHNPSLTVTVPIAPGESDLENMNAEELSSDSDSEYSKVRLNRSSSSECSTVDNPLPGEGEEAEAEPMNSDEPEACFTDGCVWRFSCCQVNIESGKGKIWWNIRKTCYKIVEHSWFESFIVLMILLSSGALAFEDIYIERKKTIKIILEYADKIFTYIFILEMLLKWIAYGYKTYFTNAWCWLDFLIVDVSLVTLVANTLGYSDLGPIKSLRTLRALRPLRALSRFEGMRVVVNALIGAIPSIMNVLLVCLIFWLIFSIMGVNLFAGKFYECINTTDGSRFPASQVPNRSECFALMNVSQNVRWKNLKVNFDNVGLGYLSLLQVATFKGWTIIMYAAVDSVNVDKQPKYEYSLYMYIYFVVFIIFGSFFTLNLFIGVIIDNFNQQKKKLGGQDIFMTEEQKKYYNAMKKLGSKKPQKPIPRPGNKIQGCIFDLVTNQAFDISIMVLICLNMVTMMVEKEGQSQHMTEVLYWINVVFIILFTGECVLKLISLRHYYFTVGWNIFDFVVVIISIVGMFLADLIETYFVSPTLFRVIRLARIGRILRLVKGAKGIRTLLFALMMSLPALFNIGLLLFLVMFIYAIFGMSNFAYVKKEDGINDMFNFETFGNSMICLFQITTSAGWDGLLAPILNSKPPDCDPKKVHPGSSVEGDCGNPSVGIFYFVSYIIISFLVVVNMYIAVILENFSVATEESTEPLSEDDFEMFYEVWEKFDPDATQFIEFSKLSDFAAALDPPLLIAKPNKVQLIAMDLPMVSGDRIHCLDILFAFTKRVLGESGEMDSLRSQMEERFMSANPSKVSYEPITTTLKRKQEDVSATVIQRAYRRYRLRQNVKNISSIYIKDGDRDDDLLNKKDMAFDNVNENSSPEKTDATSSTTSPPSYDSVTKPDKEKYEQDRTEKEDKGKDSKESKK

SMILES | IC50 [1, 4] | IC50 [2, 5] | IC50 [3, 6] | IC50 [1, 7] | IC50 [2, 8] | IC50 [3, 9]
CC[C@H](C)[C@H](NC(=O)[C@@H](NC(=O)[C@H](CCCCN)NC(=O)[C@H](CCCNC(=N)N)NC(=O)[C@@H]1CSSC[C@@H]2NC(=O)[C@H](C)NC(=O)[C@H](CCCNC(=N)N)NC(=O)[C@H](CCC(=O)O)NC(=O)[C@H](CO)NC(=O)[C@H](CC(=O)O)NC(=O)[C@@H]3CSSC[C@H](NC(=O)[C@H](CCCNC(=N)N)NC(=O)[C@H](CC(C)C)NC(=O)CNC(=O)[C@H](CCC(=O)O)NC(=O)[C@H](CSSC[C@H](NC(=O)[C@@H](N)Cc4ccc(O)cc4)C(=O)N[C@@H](CCC(N)=O)C(=O)N[C@@H](CCCCN)C(=O)N[C@@H](Cc4c[nH]c5ccccc45)C(=O)N[C@@H](CCSC)C(=O)N[C@@H](Cc4c[nH]c5ccccc45)C(=O)N[C@@H]([C@@H](C)O)C(=O)N3)NC2=O)C(=O)N[C@@H](CCCCN)C(=O)N[C@@H](CC(C)C)C(=O)N[C@@H](Cc2c[nH]c3ccccc23)C(=O)N1)[C@@H](C)CC)C(N)=O [K12 Glu mutant] | > 10 µM | 0.755 µM | > 10 µM | – | – | –
CC[C@H](C)[C@H](NC(=O)[C@@H](NC(=O)[C@H](CCCCN)NC(=O)[C@H](CCCNC(=N)N)NC(=O)[C@@H]1CSSC[C@@H]2NC(=O)[C@H](C)NC(=O)[C@H](CCCNC(=N)N)NC(=O)[C@H](CCCCN)NC(=O)[C@H](CO)NC(=O)[C@H](CC(=O)O)NC(=O)[C@@H]3CSSC[C@H](NC(=O)[C@H](CCCNC(=N)N)NC(=O)[C@H](CC(C)C)NC(=O)CNC(=O)[C@H](CCC(=O)O)NC(=O)[C@H](CSSC[C@H](NC(=O)[C@@H](N)Cc4ccc(O)cc4)C(=O)N[C@@H](CCC(N)=O)C(=O)N[C@@H](CCCCN)C(=O)N[C@@H](Cc4c[nH]c5ccccc45)C(=O)N[C@@H](CCSC)C(=O)N[C@@H](Cc4c[nH]c5ccccc45)C(=O)N[C@@H]([C@@H](C)O)C(=O)N3)NC2=O)C(=O)N[C@@H](CCC(=O)O)C(=O)N[C@@H](CC(C)C)C(=O)N[C@@H](Cc2c[nH]c3ccccc23)C(=O)N1)[C@@H](C)CC)C(N)=O [K22 Glu mutant] | > 10 µM | 0.662 µM | > 10 µM | – | – | –
CC[C@H](C)[C@H](NC(=O)[C@@H](NC(=O)[C@H](C)NC(=O)[C@H](CCCNC(=N)N)NC(=O)[C@@H]1CSSC[C@@H]2NC(=O)[C@H](C)NC(=O)[C@H](CCCNC(=N)N)NC(=O)[C@H](CCCCN)NC(=O)[C@H](CO)NC(=O)[C@H](CC(=O)O)NC(=O)[C@@H]3CSSC[C@H](NC(=O)[C@H](CCCNC(=N)N)NC(=O)[C@H](CC(C)C)NC(=O)CNC(=O)[C@H](CCC(=O)O)NC(=O)[C@H](CSSC[C@H](NC(=O)[C@@H](N)Cc4ccc(O)cc4)C(=O)N[C@@H](CCC(N)=O)C(=O)N[C@@H](CCCCN)C(=O)N[C@@H](Cc4c[nH]c5ccccc45)C(=O)N[C@@H](CCSC)C(=O)N[C@@H](Cc4c[nH]c5ccccc45)C(=O)N[C@@H]([C@@H](C)O)C(=O)N3)NC2=O)C(=O)N[C@@H](CCCCN)C(=O)N[C@@H](CC(C)C)C(=O)N[C@@H](Cc2c[nH]c3ccccc23)C(=O)N1)[C@@H](C)CC)C(N)=O [K27 Ala mutant] | – | – | – | 2.32 µM | 0.374 µM | > 10 µM
CC[C@H](C)[C@H](NC(=O)[C@@H](NC(=O)[C@H](CCC(=O)O)NC(=O)[C@H](CCCNC(=N)N)NC(=O)[C@@H]1CSSC[C@@H]2NC(=O)[C@H](C)NC(=O)[C@H](CCCNC(=N)N)NC(=O)[C@H](CCCCN)NC(=O)[C@H](CO)NC(=O)[C@H](CC(=O)O)NC(=O)[C@@H]3CSSC[C@H](NC(=O)[C@H](CCCNC(=N)N)NC(=O)[C@H](CC(C)C)NC(=O)CNC(=O)[C@H](CCC(=O)O)NC(=O)[C@H](CSSC[C@H](NC(=O)[C@@H](N)Cc4ccc(O)cc4)C(=O)N[C@@H](CCC(N)=O)C(=O)N[C@@H](CCCCN)C(=O)N[C@@H](Cc4c[nH]c5ccccc45)C(=O)N[C@@H](CCSC)C(=O)N[C@@H](Cc4c[nH]c5ccccc45)C(=O)N[C@@H]([C@@H](C)O)C(=O)N3)NC2=O)C(=O)N[C@@H](CCCCN)C(=O)N[C@@H](CC(C)C)C(=O)N[C@@H](Cc2c[nH]c3ccccc23)C(=O)N1)[C@@H](C)CC)C(N)=O [K27 Glu mutant] | > 10 µM | 0.748 µM | > 10 µM | – | – | –
CC[C@H](C)[C@H](NC(=O)[C@@H](NC(=O)[C@H](CCCCN)NC(=O)[C@H](CCCNC(=N)N)NC(=O)[C@@H]1CSSC[C@@H]2NC(=O)[C@H](C)NC(=O)[C@H](CCCNC(=N)N)NC(=O)[C@H](CCCCN)NC(=O)[C@H](CO)NC(=O)[C@H](CC(=O)O)NC(=O)[C@@H]3CSSC[C@H](NC(=O)[C@H](CCCNC(=N)N)NC(=O)[C@H](C)NC(=O)CNC(=O)[C@H](CCC(=O)O)NC(=O)[C@H](CSSC[C@H](NC(=O)[C@@H](N)Cc4ccc(O)cc4)C(=O)N[C@@H](CCC(N)=O)C(=O)N[C@@H](CCCCN)C(=O)N[C@@H](Cc4c[nH]c5ccccc45)C(=O)N[C@@H](CCSC)C(=O)N[C@@H](Cc4c[nH]c5ccccc45)C(=O)N[C@@H]([C@@H](C)O)C(=O)N3)NC2=O)C(=O)N[C@@H](CCCCN)C(=O)N[C@@H](CC(C)C)C(=O)N[C@@H](Cc2c[nH]c3ccccc23)C(=O)N1)[C@@H](C)CC)C(N)=O [L19 Ala mutant] | – | – | – | > 10 µM | 2.81 µM | > 10 µM
CC[C@H](C)[C@H](NC(=O)[C@@H](NC(=O)[C@H](CCCCN)NC(=O)[C@H](CCCNC(=N)N)NC(=O)[C@@H]1CSSC[C@@H]2NC(=O)[C@H](C)NC(=O)[C@H](CCCNC(=N)N)NC(=O)[C@H](CCCCN)NC(=O)[C@H](CO)NC(=O)[C@H](CC(=O)O)NC(=O)[C@@H]3CSSC[C@H](NC(=O)[C@H](CCCNC(=N)N)NC(=O)[C@H](CCC(=O)O)NC(=O)CNC(=O)[C@H](CCC(=O)O)NC(=O)[C@H](CSSC[C@H](NC(=O)[C@@H](N)Cc4ccc(O)cc4)C(=O)N[C@@H](CCC(N)=O)C(=O)N[C@@H](CCCCN)C(=O)N[C@@H](Cc4c[nH]c5ccccc45)C(=O)N[C@@H](CCSC)C(=O)N[C@@H](Cc4c[nH]c5ccccc45)C(=O)N[C@@H]([C@@H](C)O)C(=O)N3)NC2=O)C(=O)N[C@@H](CCCCN)C(=O)N[C@@H](CC(C)C)C(=O)N[C@@H](Cc2c[nH]c3ccccc23)C(=O)N1)[C@@H](C)CC)C(N)=O [L19 Glu mutant] | > 10 µM | > 10 µM | > 10 µM | – | – | –
CC[C@H](C)[C@H](NC(=O)[C@@H](NC(=O)[C@H](CCCCN)NC(=O)[C@H](CCCNC(=N)N)NC(=O)[C@@H]1CSSC[C@@H]2NC(=O)[C@H](C)NC(=O)[C@H](CCCNC(=N)N)NC(=O)[C@H](CCCCN)NC(=O)[C@H](CO)NC(=O)[C@H](CC(=O)O)NC(=O)[C@@H]3CSSC[C@H](NC(=O)[C@H](CCCNC(=N)N)NC(=O)[C@H](CC(C)C)NC(=O)CNC(=O)[C@H](CCC(=O)O)NC(=O)[C@H](CSSC[C@H](NC(=O)[C@@H](N)Cc4ccc(O)cc4)C(=O)N[C@@H](CCC(N)=O)C(=O)N[C@@H](CCCCN)C(=O)N[C@@H](Cc4c[nH]c5ccccc45)C(=O)N[C@@H](CCC(=O)O)C(=O)N[C@@H](Cc4c[nH]c5ccccc45)C(=O)N[C@@H]([C@@H](C)O)C(=O)N3)NC2=O)C(=O)N[C@@H](CCCCN)C(=O)N[C@@H](CC(C)C)C(=O)N[C@@H](Cc2c[nH]c3ccccc23)C(=O)N1)[C@@H](C)CC)C(N)=O [M6 Glu mutant] | > 10 µM | > 10 µM | > 10 µM | – | – | –
CC[C@H](C)[C@H](NC(=O)[C@@H](NC(=O)[C@H](CCCCN)NC(=O)[C@H](CCCNC(=N)N)NC(=O)[C@@H]1CSSC[C@@H]2NC(=O)[C@H](C)NC(=O)[C@H](CCCNC(=N)N)NC(=O)[C@H](CCCCN)NC(=O)[C@H](CO)NC(=O)[C@H](CC(=O)O)NC(=O)[C@@H]3CSSC[C@H](NC(=O)[C@H](CCCNC(=N)N)NC(=O)[C@H](CC(C)C)NC(=O)CNC(=O)[C@H](CCC(=O)O)NC(=O)[C@H](CSSC[C@H](NC(=O)[C@@H](N)Cc4ccc(O)cc4)C(=O)N[C@@H](C)C(=O)N[C@@H](CCCCN)C(=O)N[C@@H](Cc4c[nH]c5ccccc45)C(=O)N[C@@H](CCSC)C(=O)N[C@@H](Cc4c[nH]c5ccccc45)C(=O)N[C@@H]([C@@H](C)O)C(=O)N3)NC2=O)C(=O)N[C@@H](CCCCN)C(=O)N[C@@H](CC(C)C)C(=O)N[C@@H](Cc2c[nH]c3ccccc23)C(=O)N1)[C@@H](C)CC)C(N)=O [Q3 Ala mutant] | – | – | – | 1.15 µM | 0.378 µM | > 10 µM
CC[C@H](C)[C@H](NC(=O)[C@@H](NC(=O)[C@H](CCCCN)NC(=O)[C@H](CCCNC(=N)N)NC(=O)[C@@H]1CSSC[C@@H]2NC(=O)[C@H](C)NC(=O)[C@H](CCCNC(=N)N)NC(=O)[C@H](CCCCN)NC(=O)[C@H](CO)NC(=O)[C@H](CC(=O)O)NC(=O)[C@@H]3CSSC[C@H](NC(=O)[C@H](CCCNC(=N)N)NC(=O)[C@H](CC(C)C)NC(=O)CNC(=O)[C@H](CCC(=O)O)NC(=O)[C@H](CSSC[C@H](NC(=O)[C@@H](N)Cc4ccc(O)cc4)C(=O)N[C@@H](CCC(=O)O)C(=O)N[C@@H](CCCCN)C(=O)N[C@@H](Cc4c[nH]c5ccccc45)C(=O)N[C@@H](CCSC)C(=O)N[C@@H](Cc4c[nH]c5ccccc45)C(=O)N[C@@H]([C@@H](C)O)C(=O)N3)NC2=O)C(=O)N[C@@H](CCCCN)C(=O)N[C@@H](CC(C)C)C(=O)N[C@@H](Cc2c[nH]c3ccccc23)C(=O)N1)[C@@H](C)CC)C(N)=O [Q3 Glu mutant] | 1.83 µM | 0.333 µM | > 10 µM | – | – | –
CC[C@H](C)[C@H](NC(=O)[C@@H](NC(=O)[C@H](CCCCN)NC(=O)[C@H](CCCNC(=N)N)NC(=O)[C@@H]1CSSC[C@@H]2NC(=O)[C@H](C)NC(=O)[C@H](CCC(=O)O)NC(=O)[C@H](CCCCN)NC(=O)[C@H](CO)NC(=O)[C@H](CC(=O)O)NC(=O)[C@@H]3CSSC[C@H](NC(=O)[C@H](CCCNC(=N)N)NC(=O)[C@H](CC(C)C)NC(=O)CNC(=O)[C@H](CCC(=O)O)NC(=O)[C@H](CSSC[C@H](NC(=O)[C@@H](N)Cc4ccc(O)cc4)C(=O)N[C@@H](CCC(N)=O)C(=O)N[C@@H](CCCCN)C(=O)N[C@@H](Cc4c[nH]c5ccccc45)C(=O)N[C@@H](CCSC)C(=O)N[C@@H](Cc4c[nH]c5ccccc45)C(=O)N[C@@H]([C@@H](C)O)C(=O)N3)NC2=O)C(=O)N[C@@H](CCCCN)C(=O)N[C@@H](CC(C)C)C(=O)N[C@@H](Cc2c[nH]c3ccccc23)C(=O)N1)[C@@H](C)CC)C(N)=O [R13 Glu mutant] | > 10 µM | 4.57 µM | > 10 µM | – | – | –
